For orientation: IC50 means the point on the concentration scale where inhibition reaches its midpoint.

Molecules are shown by their SMILES.

Drawing on ChEMBL document CHEMBL4808175 (J Med Chem, 2021), this text covers IC50 for 29 molecules.

The assay addresses cGMP-specific 3',5'-cyclic phosphodiesterase (Homo sapiens, UniProt O76074). Put plainly: Inhibition of recombinant full length GST-tagged PDE5A1 (unknown origin) expressed in baculovirus infected Sf9 insect cells using TAMRA-cGMP as substrate incubated for 1.5 hrs by IMAP-FP assay.
As for `COc1ccc(C2CC(C(C)(C)C)=NN2c2ccc(C(=O)O)cc2)c(F)c1F` (centres undefined), the IC50 is 60 nM.
With `CCCCNC(=O)c1ccc(N2N=C(c3ccccc3C)CC2c2ccc(OC)cc2)cc1` (centres undefined), the IC50 is 280 nM.
With `COc1ccc(C2CC(c3cccc(C)c3)=NN2c2ccc(C(=O)O)cc2)cc1` (centres undefined), the IC50 was found to be 1560 nM.
Take `CC(C)(C)C1=NN(c2ccc(C(=O)O)cc2)C(c2ccc(OC(F)(F)F)cc2)C1` (centres undefined): the IC50 came to 10000 nM.
Consider `COc1ccc(C2CC(c3ccccc3O)=NN2c2ccc(C(=O)O)cc2)cc1` (racemic), for which the IC50 stood at 330 nM.
In the case of `COc1cc(F)c(C2CC(C(C)(C)C)=NN2c2ccc(C(=O)N3CCN(C)CC3)cc2)cc1F` (centres undefined), the IC50 was 260 nM.
In the case of `COc1cc(C2CC(C(C)(C)C)=NN2c2ccc(C(=O)O)cc2)ccc1F` (centres undefined), the half-maximal inhibitory concentration (IC50) was 10100 nM.
As to `COc1ccc(C2CC(c3ccccc3C)=NN2c2ccc(C(=O)N3CCOCC3)cc2)cc1` (centres undefined), the IC50 was found to be 29 nM.
Take `COc1ccc(C2CC(c3ccccc3C)=NN2c2ccc(C(=O)O)cc2)cc1F` (centres undefined): the IC50 turned out to be 130 nM.
With `CCOc1c(F)cc(C2CC(C(C)(C)C)=NN2c2ccc(C(=O)O)cc2)cc1F` (centres undefined) the figure was 200 nM.
On to `COc1ccc(C2CC(c3ccccc3)=NN2c2ccc(C(=O)N3CCN(C)CC3)cc2)cc1` (centres undefined), for which the IC50 stood at 78 nM.
Turning to `COc1ccc(C2CC(C(C)(C)C)=NN2c2ccc(C(=O)O)cc2)cc1Cl` (centres undefined), the IC50 turned out to be 900 nM.
`CCCCNC(=O)c1ccc(N2N=C(c3ccccc3)CC2c2ccc(OC)cc2)cc1` (centres undefined): the IC50 came to 410 nM.
Regarding `COc1ccc(C2CC(C(C)(C)C)=NN2c2ccc(C(=O)N3CCN(C)CC3)cc2)cc1Cl` (centres undefined), the IC50 came to 190 nM.
For the molecule `CCCCNC(=O)c1ccc(N2N=C(C(C)(C)C)CC2c2ccc(OC)c(F)c2)cc1` (centres undefined), the IC50 is 410 nM.
On to `COc1ccc(C2CC(c3ccccc3C)=NN2c2ccc(C(=O)O)cc2)cc1` (centres undefined), for which the IC50 was determined as 500 nM.
For the molecule `COc1ccc(C2CC(c3ccccc3)=NN2c2ccc(C(=O)O)cc2)cc1F` (centres undefined), the half-maximal inhibitory concentration (IC50) came to 1190 nM.
With `COc1ccc(C2C3COc4ccccc4C3=NN2c2ccc(C(=O)O)cc2)cc1` (centres undefined) the figure was 1160 nM.
Regarding `COc1ccc(C2C3Cc4ccccc4C3=NN2c2ccc(C(=O)O)cc2)cc1` (centres undefined), the IC50 came to 1440 nM.
As to `CCOc1c(F)cc(C2CC(C(C)(C)C)=NN2c2ccc(C(=O)N3CCN(C)CC3)cc2)cc1F` (centres undefined), the IC50 stood at 130 nM.
Then `COc1ccc(C2CC(c3ccc(O)cc3)=NN2c2ccc(C(=O)O)cc2)cc1` (centres undefined), with 2500 nM; and `COc1ccc(C2CC(C(C)(C)C)=NN2c2ccc(C(=O)O)cc2)cc1F` (centres undefined), with 590 nM.
For `COc1cc(F)c(C2CC(C(C)(C)C)=NN2c2ccc(C(=O)O)cc2)cc1F` (centres undefined), the 50% inhibitory concentration (IC50) was 10000 nM.
With `CCCCNC(=O)c1ccc(N2N=C(C(C)(C)C)CC2c2ccc(OC)cc2)cc1` (centres undefined), the half-maximal inhibitory concentration (IC50) was 1200 nM.
On to `COc1ccc(C2CC(C(C)(C)C)=NN2c2ccc(C(=O)N3CCN(C)CC3)cc2)cc1` (centres undefined), for which the IC50 is 90 nM.
In the case of `COc1c(F)cc(C2CC(C(C)(C)C)=NN2c2ccc(C(=O)O)cc2)cc1F` (centres undefined), the half-maximal inhibitory concentration (IC50) was found to be 90 nM.
Then `COc1ccc(C2CC(C(C)(C)C)=NN2c2ccc(C(=O)N3CCN(C)CC3)cc2)cc1F` (centres undefined), with 20 nM; and `CCNC(=O)c1ccc(N2N=C(c3ccccc3)CC2c2ccc(OC)cc2)cc1` (centres undefined), with 600 nM.
Regarding `COc1cc(C2CC(C(C)(C)C)=NN2c2ccc(C(=O)N3CCN(C)CC3)cc2)ccc1F` (centres undefined), the IC50 worked out at 1290 nM.
